{"source": "paper PMC5218480", "about": "(PLoS ONE, 2017)", "test_system": "MV-4-11 cells", "experiment": "Gene expression microarray analysis (Affymetrix PrimeView) and GSEA", "format": "cell-based, human", "parameters": "RFU PODN (11730768_x_at) / Fold change /veh PODN (11730768_x_at) / RFU LINC00158 (11744669_a_at) / Fold change /veh LINC00158 (11744669_a_at) / RFU DUSP10 (11751237_a_at) / Fold change /veh DUSP10 (11751237_a_at) / RFU ID3 (11757404_x_at) / Fold change /veh ID3 (11757404_x_at) / RFU PLEKHG5 (11737974_s_at) / Fold change /veh PLEKHG5 (11737974_s_at) / RFU LRRC4B (11730491_at) / Fold change /veh LRRC4B (11730491_at) / RFU GIMAP4 (11747438_a_at) / Fold change /veh GIMAP4 (11747438_a_at) / RFU KRT8 (11758183_x_at) / Fold change /veh KRT8 (11758183_x_at) / RFU CNN1 (11734310_a_at) / Fold change /veh CNN1 (11734310_a_at) / RFU VPS37D (11726825_at) / Fold change /veh VPS37D (11726825_at) / RFU C10orf10 (11716522_x_at) / Fold change /veh C10orf10 (11716522_x_at) / RFU KIR2DL2 /// KIR2DL4 /// KIR2DL5A /// KIR2DL5B /// KIR2DS1 /// KIR2DS2 /// KIR2DS3 /// KIR2DS4 /// KIR3DL3 /// KIR3DL3 /// KIR3DS1 (11738374_at) / Fold change /veh KIR2DL2 /// KIR2DL4 /// KIR2DL5A /// KIR2DL5B /// KIR2DS1 /// KIR2DS2 /// KIR2DS3 /// KIR2DS4 /// KIR3DL3 /// KIR3DL3 /// KIR3DS1 (11738374_at) / RFU C1QL1 (11718748_at) / Fold change /veh C1QL1 (11718748_at) / RFU TMPRSS4 (11747572_a_at) / Fold change /veh TMPRSS4 (11747572_a_at) / RFU HAMP (11756126_x_at) / Fold change /veh HAMP (11756126_x_at) / RFU RNFT2 (11725882_a_at) / Fold change /veh RNFT2 (11725882_a_at) / RFU NR4A2 (11747474_a_at) / Fold change /veh NR4A2 (11747474_a_at) / RFU ABCC12 (11746883_a_at) / Fold change /veh ABCC12 (11746883_a_at) / RFU TMEM136 (11760407_x_at) / Fold change /veh TMEM136 (11760407_x_at) / RFU CLDN22 /// WWC2 (11732394_at) / Fold change /veh CLDN22 /// WWC2 (11732394_at) / RFU HLA-DPB1 (11760878_x_at) / Fold change /veh HLA-DPB1 (11760878_x_at) / RFU SPINT1 (11716480_a_at) / Fold change /veh SPINT1 (11716480_a_at) / RFU GAP43 (11754022_s_at) / Fold change /veh GAP43 (11754022_s_at) / RFU A4GNT (11735810_at) / Fold change /veh A4GNT (11735810_at) / RFU PRB3 (11715151_x_at) / Fold change /veh PRB3 (11715151_x_at) / RFU TUBB4B (11761932_at) / Fold change /veh TUBB4B (11761932_at) / RFU CAPN14 (11732068_a_at) / Fold change /veh CAPN14 (11732068_a_at) / RFU TMCC2 (11721928_a_at) / Fold change /veh TMCC2 (11721928_a_at) / RFU IRGQ (11745062_a_at) / Fold change /veh IRGQ (11745062_a_at) / RFU FAM174B (11720279_a_at) / Fold change /veh FAM174B (11720279_a_at) / RFU TMPRSS4 (11748680_a_at) / Fold change /veh TMPRSS4 (11748680_a_at) / RFU FAM212B (11763350_a_at) / Fold change /veh FAM212B (11763350_a_at) / RFU PLEKHG5 (11743358_a_at) / Fold change /veh PLEKHG5 (11743358_a_at) / RFU ZSCAN30 (11745921_a_at) / Fold change /veh ZSCAN30 (11745921_a_at) / RFU CMKLR1 (11741424_a_at) / Fold change /veh CMKLR1 (11741424_a_at) / RFU LOC101060620 /// MAPK8IP1 (11723275_at) / Fold change /veh LOC101060620 /// MAPK8IP1 (11723275_at) / RFU SPTSSB (11747773_x_at) / Fold change /veh SPTSSB (11747773_x_at) / RFU PRSS12 (11739890_at) / Fold change /veh PRSS12 (11739890_at) / RFU BIN1 (11741810_x_at) / Fold change /veh BIN1 (11741810_x_at) / RFU WNT11 (11732464_a_at) / Fold change /veh WNT11 (11732464_a_at) / RFU C10orf10 (11716521_a_at) / Fold change /veh C10orf10 (11716521_a_at) / RFU C5orf56 (11738089_at) / Fold change /veh C5orf56 (11738089_at) / RFU CYB561 (11721691_x_at) / Fold change /veh CYB561 (11721691_x_at) / RFU ANKRD19P (11752326_a_at) / Fold change /veh ANKRD19P (11752326_a_at) / RFU OR2T12 /// OR2T33 /// OR2T8 (11738714_s_at) / Fold change /veh OR2T12 /// OR2T33 /// OR2T8 (11738714_s_at) / RFU VCAN (11748164_a_at) / Fold change /veh VCAN (11748164_a_at) / RFU JSRP1 (11732532_at) / Fold change /veh JSRP1 (11732532_at) / RFU KRTAP10-11 (11738290_x_at) / Fold change /veh KRTAP10-11 (11738290_x_at) / RFU MYO3A (11730013_a_at) / Fold change /veh MYO3A (11730013_a_at) / RFU EBF3 (11725865_a_at) / Fold change /veh EBF3 (11725865_a_at) / RFU CAMK2N1 (11719241_x_at) / Fold change /veh CAMK2N1 (11719241_x_at) / RFU C5orf56 (11738088_a_at) / Fold change /veh C5orf56 (11738088_a_at) / RFU OLFML3 (11715873_a_at) / Fold change /veh OLFML3 (11715873_a_at) / RFU LOC100653217 /// NTM (11731650_a_at) / Fold change /veh LOC100653217 /// NTM (11731650_a_at) / RFU MAPK11 (11762145_a_at) / Fold change /veh MAPK11 (11762145_a_at) / RFU FIZ1 (11724087_x_at) / Fold change /veh FIZ1 (11724087_x_at) / RFU OASL (11726364_x_at) / Fold change /veh OASL (11726364_x_at) / RFU SOX15 (11748057_x_at) / Fold change /veh SOX15 (11748057_x_at) / RFU CD79A (11719716_a_at) / Fold change /veh CD79A (11719716_a_at) / RFU HIST1H1D (11736915_at) / Fold change /veh HIST1H1D (11736915_at) / RFU CASKIN2 (11723855_a_at) / Fold change /veh CASKIN2 (11723855_a_at) / RFU LOC730098 (11760151_x_at) / Fold change /veh LOC730098 (11760151_x_at) / RFU OR4N2 (11742367_at) / Fold change /veh OR4N2 (11742367_at) / RFU PRRT2 (11749266_a_at) / Fold change /veh PRRT2 (11749266_a_at) / RFU SNX32 (11753110_a_at) / Fold change /veh SNX32 (11753110_a_at) / RFU CDHR5 (11726645_a_at) / Fold change /veh CDHR5 (11726645_a_at) / RFU RCAN1 (11760418_a_at) / Fold change /veh RCAN1 (11760418_a_at) / RFU FAM167A (11723789_a_at) / Fold change /veh FAM167A (11723789_a_at) / RFU FAM26E (11764081_at) / Fold change /veh FAM26E (11764081_at) / RFU ISYNA1 (11749810_s_at) / Fold change /veh ISYNA1 (11749810_s_at) / RFU ACY1 (11761880_at) / Fold change /veh ACY1 (11761880_at) / RFU 11764098_at / Fold change /veh 11764098_at / RFU SAMD14 (11745864_x_at) / Fold change /veh SAMD14 (11745864_x_at) / RFU NPB (11741838_a_at) / Fold change /veh NPB (11741838_a_at) / RFU TMPRSS6 (11731388_a_at) / Fold change /veh TMPRSS6 (11731388_a_at) / RFU KRTAP10-2 (11738614_at) / Fold change /veh KRTAP10-2 (11738614_at) / RFU ARHGAP8 /// PRR5-ARHGAP8 (11727945_x_at) / Fold change /veh ARHGAP8 /// PRR5-ARHGAP8 (11727945_x_at) / RFU KRTAP5-7 /// NADSYN1 (11734609_at) / Fold change /veh KRTAP5-7 /// NADSYN1 (11734609_at) / RFU RASL12 (11751679_a_at) / Fold change /veh RASL12 (11751679_a_at) / RFU CDKN2B (11736163_a_at) / Fold change /veh CDKN2B (11736163_a_at) / RFU PRF1 (11729649_at) / Fold change /veh PRF1 (11729649_at) / RFU, ZNF638 /// ZNF638-IT1 / Fold change vs veh, ZNF638 /// ZNF638-IT1 / RFU, PANK3 / Fold change vs veh, PANK3 / RFU, SH3YL1 / Fold change vs veh, SH3YL1 / RFU, ZEB2 / Fold change vs veh, ZEB2 / RFU, NRIP1 / Fold change vs veh, NRIP1 / RFU, PTTG1IP / Fold change vs veh, PTTG1IP / RFU, CAPN2 / Fold change vs veh, CAPN2 / RFU, MED14 / Fold change vs veh, MED14 / RFU, SNORA58 / Fold change vs veh, SNORA58 / RFU, C1orf63 / Fold change vs veh, C1orf63 / RFU, LRRFIP1 / Fold change vs veh, LRRFIP1 / RFU, NDUFAF7 / Fold change vs veh, NDUFAF7 / RFU, SLC12A2 / Fold change vs veh, SLC12A2 / RFU, IBTK / Fold change vs veh, IBTK / RFU, ESF1 / Fold change vs veh, ESF1 / Fold change vs veh, TMEM50B / RFU, TAOK1 / Fold change vs veh, TAOK1 / RFU, ACBD3 / Fold change vs veh, ACBD3 / RFU, TMA16 / Fold change vs veh, TMA16 / RFU, RWDD3 / Fold change vs veh, RWDD3 / RFU, BCAT1 / Fold change vs veh, BCAT1 / RFU, EDEM3 / Fold change vs veh, EDEM3 / RFU, TMEM33 / Fold change vs veh, TMEM33 / RFU, WDR75 / Fold change vs veh, WDR75 / RFU, AHCTF1 / Fold change vs veh, AHCTF1 / RFU, TFRC / Fold change vs veh, TFRC / RFU, ZDHHC17 / Fold change vs veh, ZDHHC17 / RFU, NOM1 / Fold change vs veh, NOM1 / RFU, ARL8B / Fold change vs veh, ARL8B / RFU, ZBTB11 / Fold change vs veh, ZBTB11 / RFU, TAMM41 / Fold change vs veh, TAMM41 / RFU, KIAA1704 /// LOC100996395 / Fold change vs veh, KIAA1704 /// LOC100996395 / RFU, ING1 / Fold change vs veh, ING1 / RFU, TRMT61B / Fold change vs veh, TRMT61B / RFU, FUBP3 / Fold change vs veh, FUBP3 / RFU, TP53 / Fold change vs veh, TP53 / RFU, TNKS2 / Fold change vs veh, TNKS2 / RFU, ZFP14 / Fold change vs veh, ZFP14 / RFU, ACTR2 / Fold change vs veh, ACTR2 / RFU, PPP3R1 / Fold change vs veh, PPP3R1 / RFU, PIK3R1 / Fold change vs veh, PIK3R1 / RFU, HNRNPA1 / Fold change vs veh, HNRNPA1 / RFU, RNF170 / Fold change vs veh, RNF170 / RFU, ZNF28 / Fold change vs veh, ZNF28 / RFU, RNGTT / Fold change vs veh, RNGTT / RFU, OGT / Fold change vs veh, OGT / RFU, BRD1 / Fold change vs veh, BRD1 / RFU, MARS / Fold change vs veh, MARS / RFU, ZNF655 / Fold change vs veh, ZNF655 / RFU, FAHD1 / Fold change vs veh, FAHD1 / RFU, BDP1 / Fold change vs veh, BDP1 / RFU, LRRCC1 / Fold change vs veh, LRRCC1 / RFU, ARID1A / Fold change vs veh, ARID1A / RFU, ZNF146 / Fold change vs veh, ZNF146 / RFU, ZNF330 / Fold change vs veh, ZNF330 / RFU, GPN3 / Fold change vs veh, GPN3 / RFU, C9orf123 / Fold change vs veh, C9orf123 / RFU, N4BP2L2 / Fold change vs veh, N4BP2L2 / RFU, ARFIP1 / Fold change vs veh, ARFIP1 / RFU, FAM179B / Fold change vs veh, FAM179B / RFU, BCL10 / Fold change vs veh, BCL10 / RFU, UHRF1BP1L / Fold change vs veh, UHRF1BP1L / RFU, BET1 / Fold change vs veh, BET1 / RFU, CNOT2 / Fold change vs veh, CNOT2 / RFU, ZNF268 / Fold change vs veh, ZNF268 / Fold change vs veh, ZNF507 / RFU, DGCR2 / Fold change vs veh, DGCR2 / RFU, WDSUB1 / Fold change vs veh, WDSUB1 / Fold change vs veh, HSP90B1 /// MIR3652 / RFU, ADSS / Fold change vs veh, ADSS / RFU, GK / Fold change vs veh, GK / RFU, ZNF148 / Fold change vs veh, ZNF148 / RFU, TAF9 / Fold change vs veh, TAF9 / RFU, SLC1A5 / Fold change vs veh, SLC1A5 / RFU, SLMO2 / Fold change vs veh, SLMO2 / RFU, ABCC4 / Fold change vs veh, ABCC4 / RFU, LOC101060439 /// RAP1B / Fold change vs veh, LOC101060439 /// RAP1B / RFU, RFX7 / Fold change vs veh, RFX7 / RFU, GTPBP10 / Fold change vs veh, GTPBP10 / RFU, CNEP1R1 / Fold change vs veh, CNEP1R1 / RFU, BIVM-ERCC5 /// ERCC5 / Fold change vs veh, BIVM-ERCC5 /// ERCC5 / RFU, ILF3 / Fold change vs veh, ILF3 / RFU 11762660_at / Fold change /veh 11762660_at / RFU VCAN (11757783_s_at) / Fold change /veh VCAN (11757783_s_at) / RFU DDX43 (11728927_at) / Fold change /veh DDX43 (11728927_at) / RFU KRT8 (11758188_x_at) / Fold change /veh KRT8 (11758188_x_at) / RFU NKD1 (11759106_at) / Fold change /veh NKD1 (11759106_at) / RFU SRD5A1 (11742802_a_at) / Fold change /veh SRD5A1 (11742802_a_at) / RFU TPSAB1 /// TPSB2 (11721975_s_at) / Fold change /veh TPSAB1 /// TPSB2 (11721975_s_at) / RFU GSTM3 (11746129_a_at) / Fold change /veh GSTM3 (11746129_a_at) / RFU IL23R (11737362_x_at) / Fold change /veh IL23R (11737362_x_at) / RFU TMEM51 (11727254_a_at) / Fold change /veh TMEM51 (11727254_a_at) / RFU PIWIL2 (11732686_x_at) / Fold change /veh PIWIL2 (11732686_x_at) / RFU ORM1 (11744905_x_at) / Fold change /veh ORM1 (11744905_x_at) / RFU CCDC152 (11743942_at) / Fold change /veh CCDC152 (11743942_at) / RFU ECM1 (11717891_a_at) / Fold change /veh ECM1 (11717891_a_at) / RFU IL23R (11748794_a_at) / Fold change /veh IL23R (11748794_a_at) / RFU TNFAIP8L3 (11732012_x_at) / Fold change /veh TNFAIP8L3 (11732012_x_at) / RFU MBOAT4 (11741988_at) / Fold change /veh MBOAT4 (11741988_at) / RFU 11764193_at / Fold change /veh 11764193_at / RFU TMEM53 (11763286_at) / Fold change /veh TMEM53 (11763286_at) / RFU MAGEB2 (11727129_at) / Fold change /veh MAGEB2 (11727129_at) / RFU TMEM200A (11744735_a_at) / Fold change /veh TMEM200A (11744735_a_at) / RFU CCDC152 (11751479_a_at) / Fold change /veh CCDC152 (11751479_a_at) / RFU FAM211A (11726209_a_at) / Fold change /veh FAM211A (11726209_a_at) / RFU RGS16 (11746705_a_at) / Fold change /veh RGS16 (11746705_a_at) / RFU VCAN (11755009_s_at) / Fold change /veh VCAN (11755009_s_at) / RFU RHOB (11743442_s_at) / Fold change /veh RHOB (11743442_s_at) / RFU RGS16 (11720943_a_at) / Fold change /veh RGS16 (11720943_a_at) / RFU RGS16 (11720944_at) / Fold change /veh RGS16 (11720944_at) / RFU, VPS4B / Fold change vs veh, VPS4B / RFU, CREB1 / Fold change vs veh, CREB1 / RFU, DNAJC13 / Fold change vs veh, DNAJC13 / RFU, GNAQ / Fold change vs veh, GNAQ / RFU, CDK5R1 / Fold change vs veh, CDK5R1 / RFU, ZRANB3 / Fold change vs veh, ZRANB3 / RFU, CUL4A / Fold change vs veh, CUL4A / RFU, CCNY / Fold change vs veh, CCNY / RFU, UFL1 / Fold change vs veh, UFL1 / RFU, COG3 / Fold change vs veh, COG3 / RFU, DIAPH2 / Fold change vs veh, DIAPH2 / RFU, SKA2 / Fold change vs veh, SKA2 / RFU, AFF3 / Fold change vs veh, AFF3 / RFU, LMF1 / Fold change vs veh, LMF1 / RFU, IPO11 / Fold change vs veh, IPO11 / RFU, DFFB / Fold change vs veh, DFFB / RFU, FOXP1 / Fold change vs veh, FOXP1 / RFU, CARD8 / Fold change vs veh, CARD8 / RFU, STRN3 / Fold change vs veh, STRN3 / RFU, ADK / Fold change vs veh, ADK / RFU, RASSF2 / Fold change vs veh, RASSF2 / RFU, WIPF1 / Fold change vs veh, WIPF1 / RFU, LARP1B / Fold change vs veh, LARP1B / RFU, RASA1 / Fold change vs veh, RASA1 / RFU, RB1 / Fold change vs veh, RB1 / RFU, PPFIA1 / Fold change vs veh, PPFIA1 / RFU, MAT2A / Fold change vs veh, MAT2A / RFU, CCT5 / Fold change vs veh, CCT5 / RFU, WDR92 / Fold change vs veh, WDR92 / RFU, CUX1 / Fold change vs veh, CUX1 / RFU, TTC7A / Fold change vs veh, TTC7A / RFU, TMEM135 / Fold change vs veh, TMEM135 / RFU, DEPTOR / Fold change vs veh, DEPTOR / RFU, CPM / Fold change vs veh, CPM / RFU, DNAJB6 / Fold change vs veh, DNAJB6 / RFU, CACNA2D3 / Fold change vs veh, CACNA2D3 / RFU, DTX4 / Fold change vs veh, DTX4 / RFU, TFCP2 / Fold change vs veh, TFCP2 / RFU, GMCL1 /// GMCL1P1 / Fold change vs veh, GMCL1 /// GMCL1P1 / RFU, AEBP2 / Fold change vs veh, AEBP2 / RFU, SNHG1 /// SNORD22 /// SNORD25 /// SNORD26 /// SNORD27 /// SNORD28 /// SNORD29 /// SNORD31 / Fold change vs veh, SNHG1 /// SNORD22 /// SNORD25 /// SNORD26 /// SNORD27 /// SNORD28 /// SNORD29 /// SNORD31 / Fold change (Aza/veh), C12orf56 (ProbeSet 11735607_a_at) / Fold change (ACY-1035/veh), C12orf56 (ProbeSet 11735607_a_at) / Fold change (Aza/veh), FGFR1OP (ProbeSet 11751329_s_at) / Fold change (ACY-1035/veh), FGFR1OP (ProbeSet 11751329_s_at) / Fold change (Aza/veh), VPS36 (ProbeSet 11739960_a_at) / Fold change (ACY-1035/veh), VPS36 (ProbeSet 11739960_a_at) / RFU SYPL1 (11715823_x_at) / Fold change /veh SYPL1 (11715823_x_at) / RFU IGFBP7 (11715501_s_at) / Fold change /veh IGFBP7 (11715501_s_at) / RFU REEP3 (11722064_at) / Fold change /veh REEP3 (11722064_at) / RFU IGLL1 (11728026_x_at) / Fold change /veh IGLL1 (11728026_x_at): dose or concentration left out as unconfirmed", "details": "ProbeSet 11754362_a_at; LIST D"}
{"smiles": "Nc1ccc(-c2cccs2)cc1NC(=O)c1ccc2c(c1)cc(C1CC1)n2CCN1CCOCC1", "note": "[ACY-1035]", "values": [{"measurement": "RFU, TTC7A", "value": 150.96, "unit": "RFU"}]}
